Experiment [1] concerns the target T1, norepinephrine transporter (NET) (Homo sapiens, UniProt P23975).
T1 construct: expressed in transfected cells
The experiment in a line: Secondary radioligand binding assay (affinity). Particulars: FIG. 10A. How it is done:
The secondary binding assay was performed only when the inhibition in the primary screen was over 50%. A secondary binding assay was utilized to determine the binding affinity for the identified receptor.
50 μL of a crude membrane fraction of cells expressing the respective receptors were applied to each well. Reaction incubation, harvesting and radioactivity measurement from the primary assay were repeated. Affinity is expressed as pKi (−log Ki).

The next experiment deals with Sigma 1 (Homo sapiens, UniProt Q99720). The experiment in a line: Primary radioligand binding screen. Details: expressed in transfected cells. The settings on record: primary binding, Sigma 1; dezocine 10 μM. How it is done:
(§1) Evidence for interaction was based on the inhibition of the reference ligand-binding signal. […] Briefly, 50 μL aliquots of radioactive ligand (5 nM) were added to wells of a 96-well plate, which contained 25 μL of the reference or test ligands. We employed transfected cell lines expressing mainly human (unless otherwise specified) recombinant receptors, monoamine transporters, or ion channels for crude membrane preparation. Detailed information about our membrane preparation is well known in the art and can be obtained from publicly available protocol online. Crude membrane fractions containing the receptors were resuspended in standard binding buffer and 50 μL aliquots added to each well. The reactions were incubated at room temperature for 1.5 hours to allow for radioligand binding equilibration. Bound radioactivity was harvested by rapid filtration through a 0.3% polyethyleneimine-treated, 96-well filter mats using a 96-well Filtermate harvester. The dried filters were treated with melted scintillant and a Microbeta scintillation counter was utilized to measure the radioactivity retained on the filter.

The target in another experiment is T2, Alpha1A (Homo sapiens, UniProt P35348).
T2 construct: expressed in transfected cells
In words: Primary radioligand binding screen. The settings on record: primary binding, Alpha1A; dezocine 10 μM. How it is done: as §1

Another experiment has as its target T3, Alpha2A (Homo sapiens, UniProt P08913).
T3 construct: expressed in transfected cells
The experiment in a line: Primary radioligand binding screen. The settings on record: primary binding, Alpha2A; dezocine 10 μM. How it is done:
as §1

For the next experiment, the target named is T4, Beta3 (Homo sapiens, UniProt P13945).
T4 construct: expressed in transfected cells
In words: Primary radioligand binding screen. The settings on record: primary binding, Beta3; dezocine 10 μM. How it is done: as §1

For another experiment, the target named is T5, NET (Homo sapiens, UniProt P23975).
T5 construct: expressed in transfected cells
The experiment in a line: Primary radioligand binding screen. The settings on record: primary binding, NET; dezocine 10 μM. How it is done:
as §1

A further experiment has as its target T6, D3 (Homo sapiens, UniProt P35462).
T6 construct: expressed in transfected cells
The experiment in a line: Primary radioligand binding screen. The settings on record: primary binding, D3; dezocine 10 μM. How it is done:
as §1

In the next experiment the target is T7, Alpha1B (Homo sapiens, UniProt P35368).
T7 construct: expressed in transfected cells
In words: Primary radioligand binding screen. Particulars: primary binding, Alpha1B; dezocine 10 μM. How it is done:
as §1

The target in the next experiment is T8, H2 (Homo sapiens, UniProt P25021).
T8 construct: expressed in transfected cells
The experiment in a line: Primary radioligand binding screen. The settings on record: primary binding, H2; dezocine 10 μM. How it is done: as §1

The next experiment deals with T9, 5-HT2C (Homo sapiens, UniProt P28335).
T9 construct: expressed in transfected cells
In words: Primary radioligand binding screen. Particulars: primary binding, 5-HT2C; dezocine 10 μM. How it is done: as §1

The next experiment addresses T10, 5-HT1D (Homo sapiens, UniProt P28221).
T10 construct: expressed in transfected cells
The experiment in a line: Primary radioligand binding screen. Particulars: primary binding, 5-HT1D; dezocine 10 μM. How it is done:
as §1

The next experiment concerns the target T11, 5-hT5A (Homo sapiens, UniProt P47898).
T11 construct: expressed in transfected cells
The experiment in a line: Primary radioligand binding screen. Particulars: primary binding, 5-hT5A; dezocine 10 μM. How it is done: as §1

A further experiment has as its target T12, D1 (Homo sapiens, UniProt P21728).
T12 construct: expressed in transfected cells
The experiment in a line: Primary radioligand binding screen. The settings on record: primary binding, D1; dezocine 10 μM. How it is done:
as §1

For a further experiment, the target named is T13, H3 (Homo sapiens, UniProt Q9Y5N1).
T13 construct: expressed in transfected cells
In words: Primary radioligand binding screen. The settings on record: primary binding, H3; dezocine 10 μM. How it is done: as §1

The next experiment has as its target T14, Alpha2C (Homo sapiens, UniProt P18825).
T14 construct: expressed in transfected cells
The experiment in a line: Primary radioligand binding screen. The settings on record: primary binding, Alpha2C; dezocine 10 μM. How it is done:
as §1

For the next experiment, the target named is T15, 5-HT3 (Homo sapiens, UniProt P46098).
T15 construct: expressed in transfected cells
In words: Primary radioligand binding screen. The settings on record: primary binding, 5-HT3; dezocine 10 μM. How it is done:
as §1

Another experiment deals with T16, 5-HT7 (Homo sapiens, UniProt P34969).
T16 construct: expressed in transfected cells
The experiment in a line: Primary radioligand binding screen. Particulars: primary binding, 5-HT7; dezocine 10 μM. How it is done:
as §1

A further experiment has as its target T17, 5-HT6 (Homo sapiens, UniProt P50406).
T17 construct: expressed in transfected cells
The experiment in a line: Primary radioligand binding screen. Particulars: primary binding, 5-HT6; dezocine 10 μM. How it is done:
as §1

The target of the next experiment is T18, M5 (Homo sapiens, UniProt P08912).
T18 construct: expressed in transfected cells
In words: Primary radioligand binding screen. Particulars: primary binding, M5; dezocine 10 μM. How it is done:
as §1

The next experiment concerns the target T19, D5 (Homo sapiens, UniProt P21918).
T19 construct: expressed in transfected cells
The experiment in a line: Primary radioligand binding screen. Particulars: primary binding, D5; dezocine 10 μM. How it is done: as §1

Another experiment deals with T20, 5-HT1E (Homo sapiens, UniProt P28566).
T20 construct: expressed in transfected cells
The experiment in a line: Primary radioligand binding screen. The settings on record: primary binding, 5-HT1E; dezocine 10 μM. How it is done:
as §1

A further experiment addresses T21, 5-HT1A (Homo sapiens, UniProt P08908).
T21 construct: expressed in transfected cells
In words: Primary radioligand binding screen. Particulars: primary binding, 5-HT1A; dezocine 10 μM. How it is done:
as §1

Another experiment deals with T22, 5-HT1B (Homo sapiens, UniProt P28222).
T22 construct: expressed in transfected cells
The experiment in a line: Primary radioligand binding screen. Particulars: primary binding, 5-HT1B; dezocine 10 μM. How it is done:
as §1

The target of the next experiment is T23, Beta2 (Homo sapiens, UniProt P07550).
T23 construct: expressed in transfected cells
The experiment in a line: Primary radioligand binding screen. The settings on record: primary binding, Beta2; dezocine 10 μM. How it is done: as §1

The target of another experiment is T24, D4 (Homo sapiens, UniProt P21917).
T24 construct: expressed in transfected cells
In words: Primary radioligand binding screen. The settings on record: primary binding, D4; dezocine 10 μM. How it is done:
as §1

The target of a further experiment is T25, D2 (Homo sapiens, UniProt P14416).
T25 construct: expressed in transfected cells
The experiment in a line: Primary radioligand binding screen. Particulars: primary binding, D2; dezocine 10 μM. How it is done: as §1

For the next experiment, the target named is T26, 5-HT2B (Homo sapiens, UniProt P41595).
T26 construct: expressed in transfected cells
The experiment in a line: Primary radioligand binding screen. The settings on record: primary binding, 5-HT2B; dezocine 10 μM. How it is done:
as §1

The next experiment has as its target T27, human cloned SERT (Homo sapiens, UniProt P31645).
T27 construct: expressed in transfected cells
The experiment in a line: Serotonin reuptake assay in HEK 293 cells. Particulars: mean±SE. It counts as cell-based. How it is done:
In brief, Human Embryonic Kidney 293 cells were plated in Poly-L-Lys (PLL) coated 384-well black clear bottom cell culture plates in DMEM+1% dFBS, at a density of 15,000 cells per well in a total volume of 40 μl. The cells were incubated for a minimum of 6 hours before use in the assays. The medium was removed and 20 μL of assay buffer (20 mM HEPES, 1×HBSS, pH 7.40) was added, followed by 5 μL of 5× drug solutions. The plate was incubated at 37° C. for 30 min. After the incubation, 25 μL of dye solution was added and fluorescence intensity was measured after […] at 37° C., using FlexStation II (bottom read mode, Excitation at 440 nm, Emission at 520 nm with 510 nm cut-off) from the Molecular Devices. […] The half maximal inhibitory concentration were determined and expressed as pIC50 (pIC50=−log (IC50)).

In another experiment the target is kappa opioid receptor (Homo sapiens, UniProt P41145). It counts as biochemical. Details: purchased Millipore (Billerica, Mass.); host or cells: Chem-5 mammalian cell line.

“Also recorded” adds a separate entry of the source.

Chain of kappa opioid receptor (P41145 whole entry): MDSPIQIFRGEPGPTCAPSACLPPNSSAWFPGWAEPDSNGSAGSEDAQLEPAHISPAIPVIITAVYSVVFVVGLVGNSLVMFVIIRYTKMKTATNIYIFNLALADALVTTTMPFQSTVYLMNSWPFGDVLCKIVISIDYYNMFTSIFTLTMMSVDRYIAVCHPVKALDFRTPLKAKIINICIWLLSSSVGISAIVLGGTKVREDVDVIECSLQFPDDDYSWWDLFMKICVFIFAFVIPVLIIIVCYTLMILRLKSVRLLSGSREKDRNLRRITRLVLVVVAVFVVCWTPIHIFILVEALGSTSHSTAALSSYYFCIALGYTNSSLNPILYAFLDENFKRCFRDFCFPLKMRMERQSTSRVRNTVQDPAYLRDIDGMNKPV
T1 sequence (P23975 whole entry): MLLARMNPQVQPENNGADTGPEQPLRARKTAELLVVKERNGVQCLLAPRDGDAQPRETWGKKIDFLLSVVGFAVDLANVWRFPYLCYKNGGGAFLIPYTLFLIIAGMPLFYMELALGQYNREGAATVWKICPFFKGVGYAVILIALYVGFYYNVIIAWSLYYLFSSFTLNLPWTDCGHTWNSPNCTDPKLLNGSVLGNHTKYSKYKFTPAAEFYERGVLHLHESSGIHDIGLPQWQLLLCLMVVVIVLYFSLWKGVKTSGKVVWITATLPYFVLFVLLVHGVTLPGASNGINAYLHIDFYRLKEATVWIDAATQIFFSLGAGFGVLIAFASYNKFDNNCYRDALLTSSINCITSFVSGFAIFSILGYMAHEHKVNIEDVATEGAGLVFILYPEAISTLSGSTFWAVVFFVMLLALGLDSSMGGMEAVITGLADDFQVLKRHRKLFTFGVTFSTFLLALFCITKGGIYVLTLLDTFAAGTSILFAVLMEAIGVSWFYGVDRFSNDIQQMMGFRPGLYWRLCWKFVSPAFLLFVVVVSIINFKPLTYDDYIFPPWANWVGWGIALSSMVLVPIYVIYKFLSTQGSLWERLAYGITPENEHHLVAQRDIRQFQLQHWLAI
T18 sequence (P08912 whole entry): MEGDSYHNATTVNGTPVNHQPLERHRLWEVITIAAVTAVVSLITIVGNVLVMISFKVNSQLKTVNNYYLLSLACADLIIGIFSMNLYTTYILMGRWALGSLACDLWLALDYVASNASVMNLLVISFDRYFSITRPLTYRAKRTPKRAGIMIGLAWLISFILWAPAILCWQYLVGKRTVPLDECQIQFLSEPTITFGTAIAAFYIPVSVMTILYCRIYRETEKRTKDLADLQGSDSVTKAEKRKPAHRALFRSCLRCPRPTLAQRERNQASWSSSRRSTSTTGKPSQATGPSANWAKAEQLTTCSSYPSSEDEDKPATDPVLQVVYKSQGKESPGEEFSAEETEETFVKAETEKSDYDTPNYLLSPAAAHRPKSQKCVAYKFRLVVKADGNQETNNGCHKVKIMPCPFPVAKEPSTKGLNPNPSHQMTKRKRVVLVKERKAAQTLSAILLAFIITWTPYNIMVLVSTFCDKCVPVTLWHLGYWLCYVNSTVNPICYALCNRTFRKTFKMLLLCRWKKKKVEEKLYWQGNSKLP
T10 sequence (P28221 whole entry): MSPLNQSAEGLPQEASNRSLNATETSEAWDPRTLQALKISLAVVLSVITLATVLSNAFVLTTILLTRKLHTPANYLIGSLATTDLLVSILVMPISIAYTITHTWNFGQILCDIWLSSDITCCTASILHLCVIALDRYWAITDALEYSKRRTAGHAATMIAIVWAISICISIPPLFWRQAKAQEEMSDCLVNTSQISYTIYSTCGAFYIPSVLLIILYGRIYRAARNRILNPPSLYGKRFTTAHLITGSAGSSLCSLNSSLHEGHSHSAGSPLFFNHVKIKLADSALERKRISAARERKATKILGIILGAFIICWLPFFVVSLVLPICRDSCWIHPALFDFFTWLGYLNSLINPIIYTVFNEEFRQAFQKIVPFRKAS
T8 sequence (P25021 whole entry): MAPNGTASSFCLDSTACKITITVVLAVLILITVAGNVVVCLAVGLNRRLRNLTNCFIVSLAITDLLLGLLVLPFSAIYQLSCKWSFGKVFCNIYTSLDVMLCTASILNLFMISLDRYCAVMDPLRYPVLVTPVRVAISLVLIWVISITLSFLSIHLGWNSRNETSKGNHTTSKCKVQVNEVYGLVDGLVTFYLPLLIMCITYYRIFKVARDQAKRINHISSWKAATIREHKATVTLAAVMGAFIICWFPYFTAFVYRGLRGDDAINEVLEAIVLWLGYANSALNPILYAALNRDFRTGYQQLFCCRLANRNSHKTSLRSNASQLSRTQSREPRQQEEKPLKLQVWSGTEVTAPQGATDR
T14 sequence (P18825 whole entry): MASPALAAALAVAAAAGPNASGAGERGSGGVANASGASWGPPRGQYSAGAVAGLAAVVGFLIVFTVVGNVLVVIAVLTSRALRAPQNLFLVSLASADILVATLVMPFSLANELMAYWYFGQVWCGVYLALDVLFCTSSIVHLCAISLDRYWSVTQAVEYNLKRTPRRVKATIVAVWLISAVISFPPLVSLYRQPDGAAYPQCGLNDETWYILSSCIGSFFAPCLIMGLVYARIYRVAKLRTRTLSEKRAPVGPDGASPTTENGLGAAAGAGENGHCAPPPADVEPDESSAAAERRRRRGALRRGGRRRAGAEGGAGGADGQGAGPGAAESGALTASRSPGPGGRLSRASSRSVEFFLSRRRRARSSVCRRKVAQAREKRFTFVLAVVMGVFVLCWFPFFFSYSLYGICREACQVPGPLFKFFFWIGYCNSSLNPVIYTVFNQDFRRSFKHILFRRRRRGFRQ
T17 sequence (P50406 whole entry): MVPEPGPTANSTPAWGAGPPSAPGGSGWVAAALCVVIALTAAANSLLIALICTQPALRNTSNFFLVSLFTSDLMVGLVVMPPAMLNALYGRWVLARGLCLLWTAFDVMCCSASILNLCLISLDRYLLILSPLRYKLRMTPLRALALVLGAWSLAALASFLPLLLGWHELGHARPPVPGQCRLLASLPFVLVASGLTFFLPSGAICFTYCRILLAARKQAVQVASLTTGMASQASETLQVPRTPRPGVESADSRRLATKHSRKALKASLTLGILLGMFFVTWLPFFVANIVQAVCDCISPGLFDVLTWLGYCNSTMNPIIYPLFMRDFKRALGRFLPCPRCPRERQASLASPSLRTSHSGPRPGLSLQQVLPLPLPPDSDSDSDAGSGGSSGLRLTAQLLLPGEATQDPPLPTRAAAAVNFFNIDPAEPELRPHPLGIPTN
T9 sequence (P28335 33-458): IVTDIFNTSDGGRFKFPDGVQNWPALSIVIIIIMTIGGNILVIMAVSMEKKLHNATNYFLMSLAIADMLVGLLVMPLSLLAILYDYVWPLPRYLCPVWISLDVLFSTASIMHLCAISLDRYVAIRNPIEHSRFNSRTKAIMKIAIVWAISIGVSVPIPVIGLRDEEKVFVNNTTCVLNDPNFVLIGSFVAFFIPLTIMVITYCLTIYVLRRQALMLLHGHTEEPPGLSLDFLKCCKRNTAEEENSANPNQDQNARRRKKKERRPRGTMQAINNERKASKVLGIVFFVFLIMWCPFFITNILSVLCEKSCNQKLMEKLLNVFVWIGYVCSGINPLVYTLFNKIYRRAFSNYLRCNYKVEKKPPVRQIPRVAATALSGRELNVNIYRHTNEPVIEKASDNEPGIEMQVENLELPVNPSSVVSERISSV
T7 sequence (P35368 whole entry): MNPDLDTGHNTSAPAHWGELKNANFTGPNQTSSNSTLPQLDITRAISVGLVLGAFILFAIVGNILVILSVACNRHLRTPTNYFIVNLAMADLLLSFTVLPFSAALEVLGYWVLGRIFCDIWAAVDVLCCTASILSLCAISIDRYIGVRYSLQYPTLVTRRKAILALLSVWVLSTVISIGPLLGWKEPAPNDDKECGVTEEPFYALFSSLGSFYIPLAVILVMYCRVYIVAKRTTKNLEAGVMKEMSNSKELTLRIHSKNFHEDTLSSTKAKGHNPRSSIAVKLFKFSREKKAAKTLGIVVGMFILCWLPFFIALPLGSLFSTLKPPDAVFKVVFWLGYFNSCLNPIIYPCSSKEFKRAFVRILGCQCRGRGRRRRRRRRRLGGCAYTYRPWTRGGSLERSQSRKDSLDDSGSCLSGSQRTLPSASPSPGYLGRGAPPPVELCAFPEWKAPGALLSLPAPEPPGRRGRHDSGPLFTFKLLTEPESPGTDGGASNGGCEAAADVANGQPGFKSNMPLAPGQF
T22 sequence (P28222 whole entry): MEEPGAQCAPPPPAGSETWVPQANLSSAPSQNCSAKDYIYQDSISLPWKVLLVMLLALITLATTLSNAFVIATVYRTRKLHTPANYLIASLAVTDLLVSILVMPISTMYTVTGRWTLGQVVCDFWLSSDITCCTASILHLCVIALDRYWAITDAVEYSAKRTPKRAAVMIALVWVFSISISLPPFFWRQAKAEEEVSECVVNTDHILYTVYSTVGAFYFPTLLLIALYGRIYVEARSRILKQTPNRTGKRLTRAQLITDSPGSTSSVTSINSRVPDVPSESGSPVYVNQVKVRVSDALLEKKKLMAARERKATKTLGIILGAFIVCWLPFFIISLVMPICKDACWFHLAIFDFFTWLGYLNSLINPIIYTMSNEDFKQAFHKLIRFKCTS
T20 sequence (P28566 whole entry): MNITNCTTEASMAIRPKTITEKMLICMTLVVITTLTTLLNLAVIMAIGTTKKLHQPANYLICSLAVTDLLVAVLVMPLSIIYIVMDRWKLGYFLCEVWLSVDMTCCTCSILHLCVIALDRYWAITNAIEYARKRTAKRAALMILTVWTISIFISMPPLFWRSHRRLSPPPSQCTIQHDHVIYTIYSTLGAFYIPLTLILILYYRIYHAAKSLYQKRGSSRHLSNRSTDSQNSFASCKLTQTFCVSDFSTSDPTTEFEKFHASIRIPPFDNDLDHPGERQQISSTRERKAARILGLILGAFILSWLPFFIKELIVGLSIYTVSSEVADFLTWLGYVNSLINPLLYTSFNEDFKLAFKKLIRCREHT
T5 sequence (P23975 whole entry): as the sequence (P23975 whole entry) above
Excerpt for kappa opioid receptor: Membrane preparations of recombinant human kappa opioid receptor expressed in the mammalian cell line Chem-5 were obtained from Millipore (Billerica, Mass.). The effects of specific kappa opioid receptor ligands on the activation of the recombinant receptor were investigated by measuring G protein activation in vitro.
The assay reports the initial rates of activation of heterotrimeric G proteins (Gαii1β1γ2) on an agonist-bound receptor by measuring the accumulation of [^35S]-GTPγS (non-hydrolyzable analog of GTP) bound to the activated Gαi1 subunit. […] The G protein activation assay was conducted as follows (final concentrations in 50 μL reaction mixture are given in parentheses): the membrane sample was diluted into ice-cold 10 mM 3-(N-morpholino)propanesulfonic acid (MOPS) buffer to reach a protein concentration of 40 ng/μL. 10 μL of the diluted dispersion were dispensed into pre-siliconized glass tubes and mixed with the ligand in MOPS buffer containing 0.1% (w/v) BSA. Upon addition of a mixture of Gαi1 (100 nM) and Gβ1γ2 (500 nM), the tubes were incubated on ice for 30 minutes. The reaction was started by addition of MOPS buffer pH=7.5 (50 mM), EDTA (1 mM), MgCl2 (3 mM), GDP (4 μM), BSA (0.3% w/v), NaCl (100 mM), DTT (1 mM), and [^35S]-GTPγS (5 nM, 1250 Ci/mmol) followed by rapid transfer of the tubes to a water bath at 30° C. The incubation continued for 45 minutes. The reaction was terminated by addition of 2 mL of ice-cold stop solution, TNMg (20 mM Tris-HCl pH=8.0, 100 mM NaCl, and 25 mM MgCl2). The reaction mixture was rapidly filtered through nitrocellulose filters (Millipore). Filters were washed four times with 2 mL each of cold TNMg buffer, dried, placed in scintillation vials filled with ScintiSafe Econo F scintillation liquid (Fisher, Waltham, Mass.), and the radioactivity counted. Duplicate samples corresponding to every ligand concentration point were counted.

For `CN1CC[C@]23c4c5ccc(O)c4O[C@H]2[C@@H](O)C=C[C@H]3[C@H]1C5` [Morphine], the “interaction (binding activity) with NET” value in experiment [1] was “No significant binding activity”.

By % inhibition is commonly meant the drop in the measured response relative to a control, in per cent. Consider `C=CCN1CC[C@]23c4c5ccc(O)c4O[C@H]2C(=O)CC[C@@]3(O)[C@H]1C5` [Naloxone], for which the “% inhibition” value at Sigma 1 was 9.6%; on Alpha1A, 4%; on Alpha2A, 12.9%; at Beta3, −3.1%; at NET it was 43.8%; on D3, 1.9%. Besides, the “% inhibition” value at Alpha1B is −2%; at H2 it was 57.4%; at 5-HT2C, 21.1%; on 5-HT1D it was −1.6%; at 5-hT5A it was 28.9%; on D1 it was 5.5%. For the same compound, the “% inhibition” value stood at 8.9% on H3; 22.7% at Alpha2C; 0% at 5-HT3; 60.3% at 5-HT7; 27.6% at 5-HT6; 32.1% on M5. Moreover, the “% inhibition” value on D5 is 2.1%; at 5-HT1E, −5.7%; at 5-HT1A, 5.8%; on 5-HT1B, −1%; at Beta2, −2.6%; at D4, −5.8%. For the same compound, the “% inhibition” value at D2 is listed as −0.8%; on 5-HT2B it was 49.6%. In experiment [1], the “interaction (binding activity) with NET” value is “No significant binding activity”.

For the compound `CNCCC(Oc1ccccc1OC)c1ccccc1` (stereo not drawn) [nisoxetine], the “pIC50 of SERT (serotonin reuptake)” value against human cloned SERT stood at 5.99±0.07.

Consider `Oc1ccc2c3c1O[C@H]1c4[nH]c5c(c4C[C@@]4(O)[C@@H](C2)N(CC2CC2)CC[C@]314)C[C@@]1(O)[C@H]2Cc3ccc(O)c4c3[C@@]1(CCN2CC1CC1)[C@H]5O4` [nor-binaltorphimine], for which the “G protein activation in the presence of kappa receptor” value on kappa opioid receptor is “inverse kappa agonist; also recorded: did not induce G protein activation”.

These data come from patent publication US9956187B2 (priority 2014, dated 2018).
